Measurements reported in US4424222A, “Pyridobenzodiazepinones, pharmaceutical compositions and method of use thereof” (Karl Thomae GmbH, priority 1982, dated 1984).

Legend:
[1] = target: muscarinic receptors (smooth muscle of the fundus of the stomach); assay: Receptor binding test (3H-N-methylscopolamine displacement), smooth muscle fundus of stomach; set-up: species or system Sprague-Dawley rats; conditions: 0.3 n molar 3H-NMS, 30° C., 45 minutes, read-out: Receptor binding tests IC50, Smooth muscle fundus of stomach
Description: (§1) The organ donors were male Sprague-Dawley rats with a body weight of from 180 to 200 g. After the heart, stomach and cerebral cortex had been removed, the remainder of the operation was carried out in ice-cold Hepes-HCl buffer (pH 7.4; 100 m molar NaCl, 10 m molar MgCl2). The smooth muscle of the fundus of the stomach was separated from the mucous membrane of the stomach and subjected to preliminary homogenization. The whole heart was cut up with scissors. All the organs were then homogenized in a Potter apparatus.
(§2) For the binding test, the homogenized organs were diluted as follows:
Smooth muscle of the fundus of the stomach: 1:100
(§3) The homogenized organ preparations were incubated at a specific concentration of a radio labeled compound and with a series of concentrations of the non-radioactive test substances in an Eppendorf centrifuge tube at 30° C. Then duration of incubation was 45 minutes. 0.3 n molar ^3 H-N-methylscopolamine (^3 H-NMS) was used as the radio labeled compound. After incubation had been brought to an end by centrifuging at 14 000 g, the radioactivity in the pellet was determined. It represents the sum of the specific and non-specific binding of ^3 H-NMS. The proportion of non-specific binding was defined as the radioactivity which was bound in the presence of 1μ molar quinuclidinylbenzylate. Four measurements were taken in each case. The IC50 values of the non-labelled test substances were determined graphically. They represent the concentration of test substance at which the specific binding of ^3 H-NMS to the muscarinic receptors in the various organs was inhibited by 50%.

[2] = Oxotremorine test: inhibition of salivation; set-up: species or system albino rats (Crl:COBS-CD (SD) BR strain); conditions: in vivo, iv; rat, i.v. 15 minutes before oxotremorine 0.083 mg/kg i.v.; double blind
Description: (§4) Oxotremorine, a specific agonist for muscarinic receptors, produces lesions in the mucous membrane of the stomach in rats and increases their secretion of saliva. This test method was chosen so that any selective activity of an antimuscarinic substance on the stomach could be identified.
(§5) 10 female albino rats (of the Crl:COBS-CD (SD) BR strain) with a body weight of from 120 to 150 g were used in each treatment group and were kept without food for 24 hours before the start of the test but given free access to drinking water.
(§6) In order to determine, in preliminary tests, the muscarinic effect of oxotremorine on each of the symptoms studied, a dosage/activity curve was drawn up with at least three dosages for each symptom.
(§7) When testing the antimuscarinic substances, the dosage of oxotremorine which triggered the symptom in question in 90 to 100% of the animals in the preliminary tests was used.
Secretion of saliva: 0.083 mg/kg i.v.
(§8) Each antimuscarinic substance was administered intravenously in uniformly graduated doses 15 minutes before the oxotremorine was administered. Control groups were given corresponding quantities of the solvent and suspending agent without the test substance.
(§9) Immediately after the oxotremorine was administered, the animals were placed in a glass case for 15 minutes and observed.
(§10) The ED50 values were determined using the method described by LITCHFIELD and WILCOXON (J. Pharmacol. Exp. Ther. 96, 99, 1949).

[3] = Mydriasis (effect on pupil size); set-up: species or system rats; conditions: in vivo, iv; rat, pupil size observed for 10 minutes; double blind
Description: The effect of the test substances on the pupil size in rats was investigated as follows:
The substances were administered intravenously to groups of 10 animals in at least three uniformly graduated doses. […] The percentage of test animals in which mydriasis occurred was determined. The ED50 values were again determined using the method of LITCHFIELD and WILCOXON (see above).

[4] = target: muscarinic receptors (cerebral cortex); assay: Receptor binding test (3H-N-methylscopolamine displacement), cerebral cortex; set-up: species or system Sprague-Dawley rats; conditions: 0.3 n molar 3H-NMS, 30° C., 45 minutes, read-out: Receptor binding tests IC50, Cortex
Description: as §1, §2, §3

[5] = system: muscarinic receptors (oxotremorine-induced lesions of the gastric mucous membrane); assay: Oxotremorine test: anti-ulcerative effect (lesions in mucous membrane of stomach); type: in vivo, albino rats (Crl:COBS-CD (SD) BR strain); conditions: iv; rat, i.v. 15 minutes before oxotremorine 0.62 mg/kg i.v.; neostigmine 1 mg/kg oral
Description: as §4, §5, §6, §7
Lesions in mucous membrane of stomach: 0.62 mg/kg i.v.
as §8, §9, §10
The effects on lesions of the mucous membrane of the stomach were evaluated as follows:
The lesions of the gastric mucous membrane were produced by intravenous injection of 0.62 mg/kg of oxotremorine 30 minutes after the oral administration of 1 mg/kg of neostigmine (a cholinesterase inhibitor). 60 minutes after the administration of the neostigmine, the animals were killed, the stomachs were removed and opened and examined for the presence of any lesions in the mucous membrane. The protective effect of the test substances was expressed as the percentabge inhibition (percentage of animals without lesions). The ED50 and ED70 values were determined using the method of LITCHFIELD AND WILCOXON (see above).

[6] = Water solubility of the base (remark); type: physicochemical; conditions: free base
[7] = target: T1, muscarinic receptors (whole heart) (Rattus norvegicus, UniProt P10980); assay: Receptor binding test (3H-N-methylscopolamine displacement), heart; set-up: species or system Sprague-Dawley rats; conditions: 0.3 n molar 3H-NMS, 30° C., 45 minutes, read-out: Receptor binding tests IC50, Heart
T1 construct: All the organs were then homogenized in a Potter apparatus; from tissue; host or cells: whole heart homogenate of male Sprague-Dawley rats
T1 sequence (P10980 1-466): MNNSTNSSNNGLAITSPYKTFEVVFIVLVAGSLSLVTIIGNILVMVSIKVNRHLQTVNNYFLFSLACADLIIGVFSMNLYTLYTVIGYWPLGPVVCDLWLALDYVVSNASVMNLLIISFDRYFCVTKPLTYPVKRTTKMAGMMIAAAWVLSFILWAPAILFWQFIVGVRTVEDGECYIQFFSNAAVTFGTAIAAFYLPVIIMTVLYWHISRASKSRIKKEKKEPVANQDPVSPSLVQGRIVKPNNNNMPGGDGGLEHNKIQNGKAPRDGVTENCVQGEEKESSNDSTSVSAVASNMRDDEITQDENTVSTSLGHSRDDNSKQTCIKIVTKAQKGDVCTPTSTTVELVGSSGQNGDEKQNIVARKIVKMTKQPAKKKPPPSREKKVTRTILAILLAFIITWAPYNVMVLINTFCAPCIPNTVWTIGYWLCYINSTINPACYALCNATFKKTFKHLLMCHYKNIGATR
Description: as §1, §2
as §3, with “They represent the concentration of test substance at which the specific binding of ^3 H-NMS to the muscarinic receptors in the various organs was inhibited by 50%.” left out

Which results are given for `CN1CCC(NC(=O)N2c3ccccc3C(=O)Nc3cccnc32)CC1` [B, 5,11-dihydro-11-[[(1-methyl-4-piperidinyl)amino]carbonyl]-6H-pyrido[2,3-b][1,4]benzodiazepin-6-one]?
IC50 [1]: 1.2 µM; ED50 at 0.25 h [2]: 0.42 mg/kg; ED50 at 10 min [3]: 0.139 mg/kg; IC50 [4]: 0.2 µM; ED50 [5]: 0.0068 mg/kg; ED70 [5]: 0.019 mg/kg

Which results are given for `CN1CCN(NC(=O)N2c3ccccc3C(=O)Nc3cccnc32)CC1` [C]?
IC50 [1]: 0.9 µM; ED50 at 0.25 h [2]: 0.056 mg/kg; ED50 at 10 min [3]: 0.07 mg/kg; IC50 [4]: 0.06 µM; ED50 [5]: 0.0033 mg/kg; ED70 [5]: 0.0052 mg/kg; water solubility (in words) [6]: watersoluble

With `CN1CCC(OC(=O)N2c3ccccc3C(=O)Nc3cccnc32)CC1` [A, 5,11-dihydro-11-[[(1-methyl-4-piperidinyl)oxy]carbonyl]-6H-pyrido[2,3,-b][1,4]benzodiazepin-6-one] as the compound, how does the IC50 [1] read?
The IC50 was about 0.9 µM.

And the ED50 at 0.25 h [2]?
The ED50 at 0.25 h was 0.85 mg/kg.

And the ED50 at 10 min [3]?
Its ED50 at 10 min is 0.13 mg/kg.

And the IC50 [7]?
The IC50 was 0.5 µM.

And the IC50 [4]?
Its IC50 is 0.1 µM.

And the ED50 [5]?
The ED50 was 0.01 mg/kg.

And the ED70 [5]?
The ED70 was 0.03 mg/kg.
